Laboratory results published in article PMC10931833, “Simultaneous Purification of Human Interferon Alpha-2b and Serum Albumin Using Bioprivileged Fluorinated Ionic Liquid-Based Aqueous Biphasic Systems” (International Journal of Molecular Sciences, 2024).

Key:
BSA [1] = molecular target: T1, BSA (Bos taurus, UniProt P02769); assay: DSC thermal unfolding of BSA in water and aqueous solutions of ABS phase-forming components; assay type: physicochemical, bovine; settings: for Tm / ΔG / ΔHcal / ΔHcal/ΔHvH / ΔHvH / ΔS: 1.0 mg/mL BSA
T1 construct: purchased Millipore Sigma-Aldrich
Protocol: Differential scanning calorimetry (DSC) measurements were performed with Nano DSC equipment, as detailed in Section 3, and used to determine the melting temperature (T m ) and enthalpy ( Δ H) of protein unfolding. DSC analyzes changes in the structure and stability of proteins as thermal transitions at the nanoscale. Using DSC to measure heat capacity as a function of the temperature of a well-studied protein such as BSA provides keen insights into folding and unfolding processes, as well as factors affecting stability. Due to the volume and concentration requirements of the DSC technique, and the constraints in available quantities of IFN- α 2b the DSC experiments on the ABS phase-forming components’ effect on the structural properties of proteins were attained only for BSA.
The T m of BSA, which corresponds to the thermal unfolding transition midpoint, was measured in the absence and presence of the ABS phase-forming components at increasing concentrations (see Figure 1 and Table 2).

BSA [2] = molecular target: T1, BSA; assay: Far-UV CD secondary structure of BSA (CONTIN-LL deconvolution); assay type: physicochemical, bovine; set-up: Regular Alpha Helix / Distorted Alpha Helix / Regular Beta Sheet / Distorted Beta Sheet / Turns / Unordered: unit not given here; settings: 1.0 mg/mL BSA, 25 °C
Description: Circular dichroism (CD) is widely used to study the secondary structures of proteins, peptides and nucleic acids, because it requires a low concentration sample, is a nondestructive method, allows studying a wide range of variables (temperature, pH, etc.), and provides information on the effect of added ligands on protein folding and interactions. Far-UV (190–260 nm) CD spectroscopy was used to assess the IFN- α 2b and BSA secondary structure since the spectra are characteristic of different structural elements.
Circular dichroism (CD) spectra were collected in a 10 mm quartz cuvette and a Chirascan spectropolarimeter (Applied Photophysics, UK) at room temperature. All CD spectra were recorded in the far-UV range of 190 to 260 nm at scan rates of 50 nm/min, with 4 accumulations, and a response time of 3 s; CD spectra were collected. For each CD experiment, two distinct duplicates were acquired and combined. BSA was fixed at 1 mg/mL, solvent concentrations ranging from 0.1 to 200 mM were used, and the spectra were translated to MRE after being expressed in terms of molar ellipticity. Spectral deconvolution was carried out with DichroWeb using the CONTIN-LL deconvolution algorithm with the SMP180 reference set.

T1 sequence (P02769 25-607): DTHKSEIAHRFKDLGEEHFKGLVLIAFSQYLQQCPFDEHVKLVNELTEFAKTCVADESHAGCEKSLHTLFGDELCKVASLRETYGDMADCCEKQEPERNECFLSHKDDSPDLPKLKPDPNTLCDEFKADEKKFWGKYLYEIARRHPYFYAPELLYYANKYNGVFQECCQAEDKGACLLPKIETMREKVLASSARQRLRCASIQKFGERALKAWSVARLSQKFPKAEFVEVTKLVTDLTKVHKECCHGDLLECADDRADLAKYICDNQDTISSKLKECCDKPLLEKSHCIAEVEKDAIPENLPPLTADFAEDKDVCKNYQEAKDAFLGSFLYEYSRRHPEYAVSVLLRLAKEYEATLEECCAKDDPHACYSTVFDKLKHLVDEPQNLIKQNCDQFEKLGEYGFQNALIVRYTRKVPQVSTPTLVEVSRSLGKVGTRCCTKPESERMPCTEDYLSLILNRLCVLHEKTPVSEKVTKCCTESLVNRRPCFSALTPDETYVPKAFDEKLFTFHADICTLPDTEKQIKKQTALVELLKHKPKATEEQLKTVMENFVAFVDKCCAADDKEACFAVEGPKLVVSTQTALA

For `CCn1cc[n+](C)c1.O=S(=O)([O-])C(F)(F)C(F)(F)C(F)(F)C(F)(F)F` [1-ethyl-3-methylimidazolium perfluorobutane sulfonate], which Tm (BSA [1]; 0.1 mM component) is on record?
The Tm was 75.55 °C.

And the ΔG (BSA [1]; 0.1 mM component)?
Its ΔG is 17.28 kcal/mol.

And the ΔHcal (BSA [1]; 0.1 mM component)?
Its ΔHcal is 120.2 kcal/mol.

What about the ΔHcal/ΔHvH (BSA [1]; 0.1 mM component) of the same molecule?
Its ΔHcal/ΔHvH is 1.028.

And the ΔHvH (BSA [1]; 0.1 mM component)?
The ΔHvH was 117 kcal/mol.

And the ΔS (BSA [1]; 0.1 mM component)?
Its ΔS is 1.445 KJ/(mol.K).

What about the Tm (BSA [1]; 1 mM component) of the same molecule?
The Tm was 75.62 °C.

What about the ΔG (BSA [1]; 1 mM component) of the same molecule?
The ΔG was 20.41 kcal/mol.

And the ΔHcal (BSA [1]; 1 mM component)?
The ΔHcal was 141.5 kcal/mol.

What about the ΔHcal/ΔHvH (BSA [1]; 1 mM component) of the same molecule?
Its ΔHcal/ΔHvH is 1.050.

And the ΔHvH (BSA [1]; 1 mM component)?
Its ΔHvH is 134.8 kcal/mol.

And the ΔS (BSA [1]; 1 mM component)?
Its ΔS is 1.700 KJ/(mol.K).

What about the Tm (BSA [1]; 5 mM component) of the same molecule?
Its Tm is 80.59 °C.

What about the ΔG (BSA [1]; 5 mM component) of the same molecule?
The ΔG was 30.02 kcal/mol.

What about the ΔHcal (BSA [1]; 5 mM component) of the same molecule?
Its ΔHcal is 190.7 kcal/mol.

And the ΔHcal/ΔHvH (BSA [1]; 5 mM component)?
Its ΔHcal/ΔHvH is 0.967.

And the ΔHvH (BSA [1]; 5 mM component)?
Its ΔHvH is 197.2 kcal/mol.

And the ΔS (BSA [1]; 5 mM component)?
The ΔS was 2.255 KJ/(mol.K).

And the Tm (BSA [1]; 10 mM component)?
Its Tm is 80.94 °C.

And the ΔG (BSA [1]; 10 mM component)?
Its ΔG is 29.09 kcal/mol.

What about the ΔHcal (BSA [1]; 10 mM component) of the same molecule?
The ΔHcal was 183.6 kcal/mol.

What about the ΔHcal/ΔHvH (BSA [1]; 10 mM component) of the same molecule?
Its ΔHcal/ΔHvH is 1.061.

And the ΔHvH (BSA [1]; 10 mM component)?
Its ΔHvH is 173.1 kcal/mol.

And the ΔS (BSA [1]; 10 mM component)?
Its ΔS is 2.168 KJ/(mol.K).

And the Tm (BSA [1]; 25 mM component)?
Its Tm is 82.57 °C.

What about the ΔG (BSA [1]; 25 mM component) of the same molecule?
Its ΔG is 32.53 kcal/mol.

What about the ΔHcal (BSA [1]; 25 mM component) of the same molecule?
The ΔHcal was 200.3 kcal/mol.

And the ΔHcal/ΔHvH (BSA [1]; 25 mM component)?
The ΔHcal/ΔHvH was 0.972.

What about the ΔHvH (BSA [1]; 25 mM component) of the same molecule?
The ΔHvH was 205.9 kcal/mol.

What about the ΔS (BSA [1]; 25 mM component) of the same molecule?
The ΔS was 2.354 KJ/(mol.K).

And the Tm (BSA [1]; 55 mM component)?
The Tm was 84.28 °C.

And the ΔG (BSA [1]; 55 mM component)?
The ΔG was 39.89 kcal/mol.

And the ΔHcal (BSA [1]; 55 mM component)?
Its ΔHcal is 239.24 kcal/mol.

What about the ΔHcal/ΔHvH (BSA [1]; 55 mM component) of the same molecule?
The ΔHcal/ΔHvH was 1.105.

What about the ΔHvH (BSA [1]; 55 mM component) of the same molecule?
The ΔHvH was 216.5 kcal/mol.

And the ΔS (BSA [1]; 55 mM component)?
Its ΔS is 2.798 KJ/(mol.K).

What about the Tm (BSA [1]; 120 mM component) of the same molecule?
The Tm was 86.15 °C.

And the ΔG (BSA [1]; 120 mM component)?
Its ΔG is 33.99 kcal/mol.

And the ΔHcal (BSA [1]; 120 mM component)?
The ΔHcal was 198.6 kcal/mol.

What about the ΔHcal/ΔHvH (BSA [1]; 120 mM component) of the same molecule?
The ΔHcal/ΔHvH was 1.051.

And the ΔHvH (BSA [1]; 120 mM component)?
Its ΔHvH is 189 kcal/mol.

And the ΔS (BSA [1]; 120 mM component)?
Its ΔS is 2.310 KJ/(mol.K).

And the “increase of BSA Tm (DSC)” value (BSA [1]; FIL at the highest concentration (120 mM) vs water)?
The value was “approximately 11 °C”.

And the “Distorted Alpha Helix” value (BSA [2]; 0.1 mM component)?
Its value is 0.206.

What about the “Distorted Beta Sheet” value (BSA [2]; 0.1 mM component) of the same molecule?
Its value is 0.029.

What about the “Regular Alpha Helix” value (BSA [2]; 0.1 mM component) of the same molecule?
Its value is 0.407.

And the “Regular Beta Sheet” value (BSA [2]; 0.1 mM component)?
Its value is 0.000.

What about the Turns (BSA [2]; 0.1 mM component) of the same molecule?
Its Turns is 0.142.

And the Unordered (BSA [2]; 0.1 mM component)?
Its Unordered is 0.216.

What about the “Distorted Alpha Helix” value (BSA [2]; 1 mM component) of the same molecule?
Its value is 0.210.

What about the “Distorted Beta Sheet” value (BSA [2]; 1 mM component) of the same molecule?
The value was 0.025.

What about the “Regular Alpha Helix” value (BSA [2]; 1 mM component) of the same molecule?
The value was 0.401.

And the “Regular Beta Sheet” value (BSA [2]; 1 mM component)?
Its value is 0.000.

What about the Turns (BSA [2]; 1 mM component) of the same molecule?
Its Turns is 0.137.

What about the Unordered (BSA [2]; 1 mM component) of the same molecule?
Its Unordered is 0.226.

What about the “Distorted Alpha Helix” value (BSA [2]; 5 mM component) of the same molecule?
The value was 0.207.

And the “Distorted Beta Sheet” value (BSA [2]; 5 mM component)?
The value was 0.027.

And the “Regular Alpha Helix” value (BSA [2]; 5 mM component)?
The value was 0.406.

What about the “Regular Beta Sheet” value (BSA [2]; 5 mM component) of the same molecule?
Its value is 0.007.

And the Turns (BSA [2]; 5 mM component)?
The Turns was 0.138.

What about the Unordered (BSA [2]; 5 mM component) of the same molecule?
Its Unordered is 0.215.

And the “Distorted Alpha Helix” value (BSA [2]; 25 mM component)?
Its value is 0.197.

And the “Distorted Beta Sheet” value (BSA [2]; 25 mM component)?
The value was 0.035.

What about the “Regular Alpha Helix” value (BSA [2]; 25 mM component) of the same molecule?
The value was 0.384.

And the “Regular Beta Sheet” value (BSA [2]; 25 mM component)?
The value was 0.023.

What about the Turns (BSA [2]; 25 mM component) of the same molecule?
Its Turns is 0.149.

And the Unordered (BSA [2]; 25 mM component)?
Its Unordered is 0.212.

And the “Distorted Alpha Helix” value (BSA [2]; 55 mM component)?
Its value is 0.210.

What about the “Distorted Beta Sheet” value (BSA [2]; 55 mM component) of the same molecule?
The value was 0.026.

What about the “Regular Alpha Helix” value (BSA [2]; 55 mM component) of the same molecule?
Its value is 0.402.

And the “Regular Beta Sheet” value (BSA [2]; 55 mM component)?
Its value is 0.000.

What about the Turns (BSA [2]; 55 mM component) of the same molecule?
The Turns was 0.140.

What about the Unordered (BSA [2]; 55 mM component) of the same molecule?
Its Unordered is 0.223.

And the “Distorted Alpha Helix” value (BSA [2]; 90 mM component)?
The value was 0.207.

What about the “Distorted Beta Sheet” value (BSA [2]; 90 mM component) of the same molecule?
Its value is 0.026.

What about the “Regular Alpha Helix” value (BSA [2]; 90 mM component) of the same molecule?
The value was 0.382.

What about the “Regular Beta Sheet” value (BSA [2]; 90 mM component) of the same molecule?
The value was 0.004.

What about the Turns (BSA [2]; 90 mM component) of the same molecule?
Its Turns is 0.142.

What about the Unordered (BSA [2]; 90 mM component) of the same molecule?
Its Unordered is 0.239.

What about the “Distorted Alpha Helix” value (BSA [2]; 120 mM component) of the same molecule?
The value was 0.206.

And the “Distorted Beta Sheet” value (BSA [2]; 120 mM component)?
Its value is 0.032.

What about the “Regular Alpha Helix” value (BSA [2]; 120 mM component) of the same molecule?
Its value is 0.405.

And the “Regular Beta Sheet” value (BSA [2]; 120 mM component)?
The value was 0.014.

And the Turns (BSA [2]; 120 mM component)?
Its Turns is 0.147.

And the Unordered (BSA [2]; 120 mM component)?
Its Unordered is 0.196.

And the “Distorted Alpha Helix” value (BSA [2]; 200 mM component)?
The value was 0.183.

What about the “Distorted Beta Sheet” value (BSA [2]; 200 mM component) of the same molecule?
Its value is 0.025.

What about the “Regular Alpha Helix” value (BSA [2]; 200 mM component) of the same molecule?
The value was 0.316.

What about the “Regular Beta Sheet” value (BSA [2]; 200 mM component) of the same molecule?
The value was 0.014.

And the Turns (BSA [2]; 200 mM component)?
Its Turns is 0.108.

And the Unordered (BSA [2]; 200 mM component)?
The Unordered was 0.354.
